system: endogenous cellular STAT1 (phosphorylated at Tyr701) in NCI-H1373 cells; assay: Phospho-STAT1 (Tyr701) LANCE Ultra TR-FRET Detection Assay; assay type: cell-based; details: Homo sapiens, NCI-H1373, 48 h, phospho-STAT1 (Tyr701) induction, read-out: NH1373 pSTAT1 EC50

With O=c1[nH]ncc(N[C@H]2CCC[C@@H](Cn3ccc4cc(-c5cnc(C(F)F)cn5)c(F)cc4c3=O)C2)c1C(F)(F)F [Example 258, 6-(5-(difluoromethyl)pyrazin-2-yl)-7-fluoro-2-(((1R,3S)-3-((6-oxo-5-(trifluoromethyl)-1,6-dihydropyridazin-4-yl)amino)cyclohexyl)methyl)isoquinolin-1(2H)-one] as the molecule, how does the EC50 read?
The EC50 was 31.7 nM.

O=c1[nH]ncc(N[C@H]2CCC[C@@H](Cn3ccc4cc(-c5ncc(C(F)F)cn5)c(F)c(F)c4c3=O)C2)c1C(F)(F)F [Example 233] was tested. Which EC50 did it give?
Its EC50 is 1.95 nM.

With C[C@@H](CCCn1cnc2cc(-c3ncc(C(F)(F)F)c(NC4CC4)n3)c(F)cc2c1=O)Nc1cn[nH]c(=O)c1C(F)(F)F [Example 116, 7-[4-(cyclopropylamino)-5-(trifluoromethyl)pyrimidin-2-yl]-6-fluoro-3-[(4S)-4-[[6-oxo-5-(trifluoromethyl)-1H-pyridazin-4-yl]amino]pentyl]quinazolin-4-one] as the molecule, how does the EC50 read?
The EC50 was 6.7 nM.

Which EC50 does the source give for COc1cnc(-c2cc3ccn(CCC[C@H](C)Nc4cn[nH]c(=O)c4C(F)(F)F)c(=O)c3cc2F)nc1N1CC(O)C1 [Example 207] here?
Its EC50 is 157 nM.

Which EC50 does the source give for [2H][C@@](C)(CCCn1ccc2cc(-c3ncc(C(F)(F)F)cn3)c(F)c(F)c2c1=O)Nc1cn[nH]c(=O)c1C(F)(F)F (single isomer, unassigned) [Example 86] here?
The EC50 was 9.21 nM.

Which EC50 does the source give for CC[C@@H](CCCn1ccc2cc(-c3cnc(C(F)(F)F)c(N)n3)c(F)c(F)c2c1=O)Nc1cn[nH]c(=O)c1C(F)(F)F [Example 362, (S)-6-(6-amino-5-(trifluoromethyl)pyrazin-2-yl)-7,8-difluoro-2-(4-((6-oxo-5-(trifluoromethyl)-1,6-dihydropyridazin-4-yl)amino)hexyl)isoquinolin-1(2H)-one] here?
The EC50 was 15.7 nM.

How did the EC50 turn out when O=c1[nH]ncc(N[C@H]2CCC[C@@H](Cn3cnc4cc(-c5ncc(C(F)F)cn5)c(F)cc4c3=O)C2)c1C(F)(F)F [Example 244, 7-(5-(difluoromethyl)pyrimidin-2-yl)-6-fluoro-3-(((1R,3S)-3-((6-oxo-5-(trifluoromethyl)-1,6-dihydropyridazin-4-yl)amino)cyclohexyl)methyl)quinazolin-4(3H)-one] was run?
The EC50 was 5.19 nM.

How did the EC50 turn out when Nc1nc(-c2cc3ncn(CC[C@H]4CCC[C@@H]4Nc4cn[nH]c(=O)c4C(F)(F)F)c(=O)c3cc2F)ncc1C(F)(F)F [Example 464, 7-(4-amino-5-(trifluoromethyl)pyrimidin-2-yl)-6-fluoro-3-(2-((1R,2S)-2-((6-oxo-5-(trifluoromethyl)-1,6-dihydropyridazin-4-yl)amino)cvclopentyl)ethyl)quinazolin-4(3H)-one] was run?
Its EC50 is 3.62 nM.

For CC[C@@H](CCCn1cnc2cc(-c3ncc(C(F)F)c(N)n3)c(F)cc2c1=O)Nc1cn[nH]c(=O)c1C(F)(F)F [Example 320, (S)-7-(4-amino-5-(difluoromethyl)pyrimidin-2-yl)-6-fluoro-3-(4-((6-oxo-5-(trifluoromethyl)-1,6-dihydropyridazin-4-yl)amino)hexyl)quinazolin-4(3H)-one], which EC50 is on record?
Its EC50 is 31.2 nM.

How did the EC50 turn out when C[C@@H](CCCn1cnc2cc(-c3ncc(C(F)F)cn3)c(F)cc2c1=O)Nc1cn[nH]c(=O)c1C(F)(F)F [Example 82, (S)-7-(5-(difluoromethyl)pyrimidin-2-yl)-6-fluoro-3-(4-((6-oxo-5-(trifluoromethyl)-1,6-dihydropyridazin-4-yl)amino)pentyl)quinazolin-4(3H)-one] was run?
Its EC50 is 63.4 nM.

Which EC50 does the source give for CC[C@@H](CCCn1cnc2cc(-c3cnc(C(F)(F)F)c(N)n3)c(F)cc2c1=O)Nc1cn[nH]c(=O)c1C(F)(F)F [Example 347, (S)-7-(6-amino-5-(trifluoromethyl)pyrazin-2-yl)-6-fluoro-3-(4-((6-oxo-5-(trifluoromethyl)-1,6-dihydropyridazin-4-yl)amino)hexyl)quinazolin-4(3H)-one] here?
Its EC50 is 93.4 nM.

How did the EC50 turn out when O=c1[nH]ncc(N[C@H](CCCn2cnc3cc(-c4ncc(Cl)cn4)c(F)cc3c2=O)COC(F)F)c1C(F)(F)F [Example 394, (R)-7-(5-chloropyrimidin-2-yl)-3-(5-(difluoromethoxy)-4-((6-oxo-5-(trifluoromethyl)-1,6-dihydropyridazin-4-yl)amino)pentyl)-6-fluoroquinazolin-4(3H)-one] was run?
The EC50 was 1.22 nM.

Which EC50 does the source give for CC[C@@H](CCCn1ccc2cc(-c3ncc(C(F)F)c(N)n3)c(F)cc2c1=O)Nc1cn[nH]c(=O)c1C(F)(F)F [Example 297, (S)-6-(4-amino-5-(difluoromethyl)pyrimidin-2-yl)-7-fluoro-2-(4-((6-oxo-5-(trifluoromethyl)-1,6-dihydropyridazin-4-yl)amino)hexyl)isoquinolin-1(2H)-one] here?
The EC50 was 3.71 nM.

How did the EC50 turn out when C[C@@H](CCCn1ccc2cc(-c3ncc(C(F)F)c(NC4CC4)n3)c(F)cc2c1=O)Nc1cn[nH]c(=O)c1C(F)(F)F [Example 221, (S)-6-(4-(cyclopropylamino)-5-(difluoromethyl)pyrimidin-2-yl)-7-fluoro-2-(4-((6-oxo-5-(trifluoromethyl)-1,6-dihydropyridazin-4-yl)amino)pentyl)isoquinolin-1(2H)-one] was run?
Its EC50 is 15.3 nM.

Which EC50 does the source give for C[C@@H](CCCn1ccc2cc(-c3nccc(N)n3)c(F)cc2c1=O)Nc1cn[nH]c(=O)c1C(F)(F)F [Example 198, (S)-6-(4-aminopyrimidin-2-yl)-7-fluoro-2-(4-((6-oxo-5-(trifluoromethyl)-1,6-dihydropyridazin-4-yl)amino)pentyl)isoquinolin-1(2H)-one] here?
The EC50 was 276 nM.

For O=c1[nH]ncc(N[C@H]2COC[C@@H](Cn3ccc4cc(-c5ncc(C(F)(F)F)cn5)c(F)cc4c3=O)C2)c1C(F)(F)F [Example 229, 7-fluoro-2-(((3R,5R)-5-((6-oxo-5-(trifluoromethyl)-1,6-dihydropyridazin-4-yl)amino)tetrahydro-2H-pyran-3-yl)methyl)-6-(5-(trifluoromethyl)pyrimidin-2-yl)isoquinolin-1(2H)-one], which EC50 is on record?
Its EC50 is 72.5 nM.

For [2H]C([2H])([2H])OC[C@@H](CCCn1ccc2cc(-c3ncc(C(F)F)c(N)n3)c(F)cc2c1=O)Nc1cn[nH]c(=O)c1C(F)(F)F [Example 429, 6-[4-amino-5-(difluoromethyl)pyrimidin-2-yl]-7-fluoro-2-[(4R)-4-[[6-oxo-5-(trifluoromethyl)-1H-pyridazin-4-yl]amino]-5-(trideuteriomethoxy)pentyl]isoquinolin-1-one], which EC50 is on record?
The EC50 was 7.21 nM.

With C[C@@H](CCCn1ccc2cc(-c3ccc(F)c(C(F)F)n3)c(F)cc2c1=O)Nc1cn[nH]c(=O)c1C(F)(F)F [Example 330, (S)-6-(6-(difluoromethyl)-5-fluoropyridin-2-yl)-7-fluoro-2-(4-((6-oxo-5-(trifluoromethyl)-1,6-dihydropyridazin-4-yl)amino)pentyl)isoquinolin-1(2H)-one] as the molecule, how does the EC50 read?
Its EC50 is 1210 nM.

With Cc1nc(-c2cc3ccn(C[C@@H]4CCC[C@H](Nc5cn[nH]c(=O)c5C(F)(F)F)C4)c(=O)c3cc2F)nc(N)c1Cl [Example 276, 6-(4-amino-5-chloro-6-methylpyrimidin-2-yl)-7-fluoro-2-(((1R,3S)-3-((6-oxo-5-(trifluoromethyl)-1,6-dihydropyridazin-4-yl)amino)cyclohexyl)methyl)isoquinolin-1(2H)-one] as the molecule, how does the EC50 read?
The EC50 was 10.3 nM.

With C[C@@H](CCCn1ccc2cc(-c3ncc(C(F)F)c(N)n3)c(F)c(F)c2c1=O)Nc1cn[nH]c(=O)c1C(F)(F)F [Example 113, 6-[4-amino-5-(difluoromethyl)pyrimidin-2-yl]-7,8-difluoro-2-[(4S)-4-[[6-oxo-5-(trifluoromethyl)-1H-pyridazin-4-yl]amino]pentyl]isoquinolin-1-one] as the molecule, how does the EC50 read?
Its EC50 is 6.93 nM.

Which EC50 does the source give for O=c1[nH]ncc(N[C@H](CCCn2ccc3cc(-c4ncc(C(F)(F)F)cn4)c(F)c(F)c3c2=O)c2nnc(C3CC3)o2)c1C(F)(F)F [Example 475, 2-[(4R)-4-(5-cyclopropyl-1,3,4-oxadiazol-2-yl)-4-[[6-oxo-5-(trifluoromethyl)-1H-pyridazin-4-yl]amino]butyl]-7,8-difluoro-6-[5-(trifluoromethyl)pyrimidin-2-yl]isoquinolin-1-one] here?
The EC50 was 10.6 nM.

How did the EC50 turn out when O=c1[nH]ncc(N[C@H]2CCC[C@@H](Cn3ccc4cc(-c5ncc(Cl)cn5)c(F)cc4c3=O)C2)c1C(F)(F)F [Example 248, 6-(5-chloropyrimidin-2-yl)-7-fluoro-2-(((1R,3S)-3-((6-oxo-5-(trifluoromethyl)-1,6-dihydropyridazin-4-yl)amino)cyclohexyl)methyl)isoquinolin-1(2H)-one] was run?
The EC50 was 3.44 nM.

For O=c1[nH]ncc(N[C@H]2CCC[C@@H](Cn3ccc4cc(-c5cnc(C(F)F)cn5)c(F)c(F)c4c3=O)C2)c1C(F)(F)F [Example 253, 6-(5-(difluoromethyl)pyrazin-2-yl)-7,8-difluoro-2-(((1R,3S)-3-((6-oxo-5-(trifluoromethyl)-1,6-dihydropyridazin-4-yl)amino)cyclohexyl)methyl)isoquinolin-1(2H)-one], which EC50 is on record?
The EC50 was 9.41 nM.

How did the EC50 turn out when Nc1nc(-c2cc3ncn(CC[C@H]4CCC[C@@H]4Nc4cn[nH]c(=O)c4C(F)(F)F)c(=O)c3cc2F)cnc1C(F)(F)F [Example 465, 7-(6-amino-5-(trifluoromethyl)pyrazin-2-yl)-6-fluoro-3-(2-((1R,2S)-2-((6-oxo-5-(trifluoromethyl)-1,6-dihydropyridazin-4-yl)amino)cyclopentyl)ethyl)quinazolin-4(3H)-one] was run?
The EC50 was 18 nM.

N#Cc1ccc(-c2cc3ccn(CCC[C@H](COC(F)F)Nc4cn[nH]c(=O)c4C(F)(F)F)c(=O)c3cc2F)nc1N [Example 411, (R)-2-amino-6-(2-(5-(difluoromethoxy)-4-((6-oxo-5-(trifluoromethyl)-1,6-dihydropyridazin-4-yl)amino)pentyl)-7-fluoro-1-oxo-1,2-dihydroisoquinolin-6-yl)nicotinonitrile] was tested. Which EC50 did it give?
Its EC50 is 5.28 nM.

For Nc1nc(-c2cc3ncn(CCC[C@@H](Nc4cn[nH]c(=O)c4C(F)(F)F)C4CC4)c(=O)c3cc2F)ncc1OC(F)F [Example 472, 7-[4-amino-5-(difluoromethoxy)pyrimidin-2-yl]-3-[(4R)-4-cyclopropyl-4-[[6-oxo-5-(trifluoromethyl)-1H-pyridazin-4-yl]amino]butyl]-6-fluoro-quinazolin-4-one], which EC50 is on record?
The EC50 was 51.6 nM.

— patent US12459922B2 (Gilead Sciences, Inc., priority 2022, dated 2025)
